Reference: patent publication US20250215051A1, “Transmembrane Allosteric Short Peptides Modulating Human Mu-Opioid Receptor for Analgesic Effects and Covalent Steroid Modifications of Transmembrane Allosteric Peptides for Enhanced Mu-Opioid Receptor Interaction in Chronic Pain Therapies” (Mu42 SPOLKA Z OGRANICZONA ODPOWIEDZIALNOSCIA, priority 2023, published 2025)
No end group written: not given here.

Target: T1, mu-opioid receptor (MOR) (Homo sapiens, UniProt P35372)
T1 construct: expressed in transfected cells; host or cells: CHO-K1
T1 sequence (P35372 whole entry): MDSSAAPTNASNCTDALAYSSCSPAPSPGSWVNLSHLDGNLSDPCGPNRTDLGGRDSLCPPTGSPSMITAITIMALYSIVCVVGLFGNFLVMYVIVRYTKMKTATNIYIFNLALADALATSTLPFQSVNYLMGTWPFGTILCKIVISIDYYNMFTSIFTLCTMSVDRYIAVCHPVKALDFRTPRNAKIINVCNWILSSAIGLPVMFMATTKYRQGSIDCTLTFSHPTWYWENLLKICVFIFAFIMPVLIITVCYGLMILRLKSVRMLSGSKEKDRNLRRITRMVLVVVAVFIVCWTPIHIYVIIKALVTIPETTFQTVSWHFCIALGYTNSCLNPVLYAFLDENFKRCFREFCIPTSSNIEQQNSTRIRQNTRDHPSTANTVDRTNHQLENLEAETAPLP
Test: functional cellular cAMP assay on CHO-K1 cell lines expressing MOR, co-administration with orthosteric ligand
Format: cell-based
Conditions: for Allosteric activity level (%): 0% = reference agonist at EC20, 100% = maximum activity of reference agonist; for EC50: logEC50(M), log of molar EC50, CHO-K1 cells expressing MOR, cAMP
Protocol: The properties and functionality of these peptidosteroids were validated using standard experimental methods. To evaluate their allosteric modulation capabilities, functional cellular assays were conducted on CHO-K1 cell lines expressing MOR. These assays utilized fluorescent techniques to measure intracellular cAMP levels as a marker of receptor activity.
The peptidosteroids were tested in co-administration with orthosteric ligands, such as morphine and DAMGO, to assess their ability to influence receptor signaling.
The table below provides additional data on the binding motifs (Candidates 1 and 2) and the resulting peptidomimetics (Candidate 3), offering a detailed comparison of their activity. The percentage values are normalized such that 0% corresponds to the activity of the reference agonist at EC20, while 100% represents the maximum activity of the reference agonist.

Substance	Allosteric activity level (%) (agonist present DAMGO)	EC50 (agonist present DAMGO (EC20))	Allosteric activity level (%) (agonist present morphine)	EC50 (agonist present morphine)
YPWFYL [sequence-4, YPWFYL]	24.64%	1.35e-06 M	–	–
VCAVGLWGNWLVM [sequence-1, VCAVGLWGNWLVM]	23.64%	4.57e-06 M	21.67%	1e-06 M
